Laboratory results taken from US9981071B2, “Drug delivery medical device” (Micell Technologies, Inc., priority 2008, dated 2018).

Columns and labels:
[1] = Bulk drug in arterial tissue surrounding the implanted stent; type: in vivo, Yucatan pig
Experimental: Another sample of the coated stent was prepared for in vivo evaluation in a porcine coronary artery model using the Yucatan pig. Subjects were initially given 650 mg acetylsalicylic acid and 300 mg Plavix. Maintenance doses of 81 mg acetylsalicylic acid and 75 mg Plavix were administered. The target ACT (activated clotting time) for the procedure was about 250 seconds. Stent oversizing in relation to the artery was about 10-20%. The preparation of the sirolimus-coated stent was the same as described in Example 1 and used for the in vitro deployment into tubing, except that the device was sterilized using ETO prior to implantation into the animal.
The bulk concentration of drug was measured in the arterial tissue surrounding the implanted stent at 1, 3, 7, 14, and 28 days after implant, and provided a quantitative measure of the high efficiency of transfer of drug into the therapeutic site using devices and methods of the invention. The amount of drug that was detected in the arterial tissue was as follows: 1 day after implant, ˜6 μg; 3 days after implant, ˜16 μg; 7 days after implant, ˜30 μg; 14 days after implant, ˜30 μg; 28 days after implant, ˜13 μg. Peak tissue concentration of sirolimus of ˜30 μg at 14 days after implant was representative of approximately ⅙ of the total drug that had been loaded on the stent. Note that some drug likely metabolized or diffused out of the arterial tissue into other areas of the body.

[2] = acid urine; cited from earlier work
[3] = tested on: bladder cancer recurrence; details: 40 mg/20 cc vs 20 mg/20 cc, dehydration, bladder emptying, alkalinization with sodium bicarbonate; cited from earlier work
[4] = set-up: dose or concentration left out as unconfirmed; details: estradiol release, as its 3-acetate ester; cited from earlier work

CO[C@H]1C[C@@H]2CC[C@@H](C)[C@@](O)(O2)C(=O)C(=O)N2CCCC[C@H]2C(=O)O[C@H]([C@H](C)C[C@@H]2CC[C@@H](O)[C@H](OC)C2)CC(=O)[C@H](C)/C=C(\C)[C@@H](O)[C@@H](OC)C(=O)[C@H](C)C[C@H](C)/C=C/C=C/C=C/1C [sirolimus]
amount of drug detected in the arterial tissue ([1]; 1 day after implant): ~6 µg | amount of drug detected in the arterial tissue ([1]; 3 days after implant): ~16 µg | amount of drug detected in the arterial tissue ([1]; 7 days after implant): ~30 µg | amount of drug detected in the arterial tissue ([1]; 14 days after implant): ~30 µg | peak tissue level as fraction of the total drug loaded on the stent ([1]; 14 days after implant): approximately ⅙ | amount of drug detected in the arterial tissue ([1]; 28 days after implant): ~13 µg

CO[C@@]12[C@H](COC(N)=O)C3=C(C(=O)C(C)=C(N)C3=O)N1C[C@@H]1N[C@@H]12 [Mitomycin C]
stability in urine [2]: inactivated by acid urine | recurrence with optimized schedule [3]: nearly cut in half

C[C@]12CC[C@@H]3c4ccc(O)cc4CC[C@H]3[C@@H]1CC[C@@H]2O [estradiol]
circulating plasma concentration maintained [4]: 300 pmol/L
